According to patent EP4076430B1, “A METHOD OF TREATING NONALCOHOLIC STEATOHEPATITIS” (Vector Vitale IP LLC, priority 2019, dated 2021):
Several values for one entry are separate records, joined by “and”; a condition that tells them apart may be missing. Identical values can stand only once. Entries after “also recorded” stand apart in the source; their conditions may differ.

Experiments:
Glucose tolerance test = type: in vivo, rats; set-up: Glucose, 0 min (1 h after effector administration): unit not given here; conditions: for glucose levels in the glucose tolerance test compared with the control group: 5 mg/kg in 2 ml, glucose 3 g/kg
Text: 5 animals were used within the same experimental group.

[1] = Accumulation of metals in liver and kidney tissues after intraperitoneal administration; type: in vivo, rats; conditions: day 1 and day 7 after discontinuation of the substances
Description: The total kidney, liver and muscle homogenates were prepared as follows. Organ excision and homogenization were carried out at a temperature of 1-4°C. Homogenization of tissues was carried out in 50 mM Tris-HCl buffer (pH 7.4) which contained 140 mM NaCl, 1 mM EDTA. The volume of the used buffer in ml was 5 times larger than the mass of isolated organs in grams. The isolated liver was perfused with chilled saline (0.9% NaCl) via the portal vein using a syringe. The minced liver was transferred to a homogenizer with a finely ground Teflon pestle and homogenized in chilled buffer. An isolated pair of kidneys was perfused with chilled saline, released from adipose tissue and minced with scissors. The minced tissue was transferred to a homogenizer with a finely ground Teflon pestle and homogenized in chilled buffer. The total kidney and liver homogenates were centrifuged at 600 g for 15 minutes. The liquid was decanted after the mince settled down and was centrifuged again at 15,000 g for 15 minutes. These two procedures allowed us to get rid of nuclear and mitochondrial debris. Aliquots of the prepared homogenates were frozen in nitrogen (Rybalchenko V.K., Koganov M.M. Structure and function of membrane 1988. - 312 pp).

insulin = assay: Serum insulin level after intraperitoneal administration (ELISA); type: in vivo; conditions: intact rats, 3750 µg of zinc per 1 kg, 7 injections every other day
Description: The current dose was calculated by zinc.
The optical density was measured at 492 nm.

[2] = tested on: pro- and anti-inflammatory cytokines; assay: Serum cytokine profile in obesity model (immunoenzyme method); type: in vivo, rats; conditions: intragastrically every third day
Description: (§1) Animal serum was prepared from whole blood. […] Samples were centrifuged for 15 min at 2500 g.

[3] = tested on: central serotonergic system (brain); assay: Indicators of the central serotonergic system in brain homogenate, obesity model; type: in vivo, rats; conditions: intragastrically every third day
Text: (§2) The tissue : buffer ratio was 1:10.
(§3) The samples were reprecipitated by centrifugation. […]
(§4) The supernatant was used in further studies.

islets of Langerhans = assay: Area of islets of Langerhans after intraperitoneal administration (microscopy); type: in vivo; conditions: intact rats, 3750 µg of zinc per 1 kg, day 7 after the last administration
Description: (§6) Animals are placed in cages, 4 per cage, with free access to food/water. […] Administration is performed every other day, in the amount of 7 injections per animal (intraperitoneal method of drug administration). The dose of the drug injected to each animal was calculated on the basis of the ratio: 3750 µg of zinc per 1 kg of animal body weight. After the last injection, a half of the animals are maintained on hunger (for 12 hours) with free access to water. Upon expiration of this time period, the animals are taken out of the experiment. The second half of the animals continues to have free access to food/water for a further 7 days. On day 6 after the last injection, the animals are maintained on hunger (for 12 hours) with free access to water. Upon expiration of this time period, the animals are taken out of the experiment.

alkaline phosphatase = assay: Serum alkaline phosphatase activity in obesity model; type: in vivo; conditions: high-fat diet rats treated
Text: (§5) Test kit // Pliva-Lachema Diagnostika. - 2008.
The alkaline phosphatase activity was expressed in relative units.

superoxide dismutase = assay: Serum superoxide dismutase activity, obesity model; type: in vivo, rats; conditions: DIO+zinc: high-fat diet, intragastrically every third day
Description: To measure superoxide dismutase activity, a method based on the ability of this enzyme to inhibit auto-oxidation of adrenaline was used.
Serum aliquots were added to microplate wells containing 0.2M bicarbonate buffer, pH 10. The reaction was initiated by adding 0.1% adrenaline solution in each well. A relevant volume of buffer was added to the "blank" wells to which no test sample was added. The optical density was measured at a wavelength of 347 nm using a µQuant microplate spectrophotometer (BioTek Instruments) at the 4th and 8th minute after adrenaline was added to the wells. The enzyme activity was expressed in relative units/min/mg.

catalase = assay: Serum catalase activity, obesity model; type: in vivo, rats; conditions: DIO+zinc: high-fat diet, intragastrically every third day
Text: Korolyuk M.A. et al., Lab. Business. - 1988. - No. 1. - P. 44-67.

[4] = Serum glucose concentration in obesity model; type: in vivo, rats; conditions: intragastrically every third day
Text: The glucose concentration was expressed in mmol/L.

[5] = Anthropometric values, amount and calorie content of food in high-fat diet induced obesity; conditions: 4.5 mg zinc aspartate intragastrically every third day; for BMI: week 10
Description: White non-pedigree rats with an initial weight of 195-205±10 g were used in the experiment. The animals were maintained in an accredited vivarium of the Academic and Research Center "Institute of Biology and Medicine" of Taras Shevchenko National University of Kyiv in accordance with the Standard rules on the arrangement, equipment and maintenance of experimental biological clinics (vivariums). The study was carried out in compliance with international standards and recommendations of the European Convention for the Protection of Vertebrate Animals used for Experimental and other Scientific Purposes (Strasbourg, 18/03/1986) and approved by the Bioethics Commission of the Academic and Research Center "Institute of Biology and Medicine".
Before the start of the experiment, animals were maintained on a standard diet of the vivarium. To induce obesity in experimental animals, they were fed high-fat diet which consisted of standard feed (60%), lard (10%), chicken eggs (10%), sucrose (9%), peanuts (5%), dry milk (5%) and sunflower oil (1%) (1%) (see X. H. Shen et al., Exp. Biol. and Med. 235: 47-51 (2010)). […] For the preparation of composition claimed standard Dulbecco's phosphate-buffered saline from (specified a manufacturer) (based on deuterium-depleted water Langway) as a diluent (liquid vehicle) was used.
Animals in all groups were weighed once a week after an overnight fast. The amount of feed to be consumed by the animals was determined daily. At the end of a 10-week period of the development of obesity models, 24 hours after the last administration of the zinc isotope solution, animals were removed from their cages and decapitated.
The body mass index (BMI) (the ratio of body weight (g) to the square of body length (cm^2)) was calculated at the end of the experiment.
Animals with an initial weight of 195-205±10 g maintained on the standard diet of the vivarium before performing obesity models were used in the experiments. To induce obesity in experimental animals, they were fed high-fat diet which consisted of standard feed (60%), lard (10%), chicken eggs (10%), sucrose (9%), peanuts (5%), dry milk (5%) and sunflower oil (1%), Shen X. et al., Experimental Biology and Medicine. - 2010. - ? […] The first 4 weeks of the experiment, all animals were maintained on a high-fat diet, after which they were randomly divided into two experimental groups: • animals in the first group (obesity) continued to eat their high-fat diet and had free access to water for the next 6 weeks of the experiment. • animals in the second group (obesity + solution of Zn-64 stable isotope in aspartate form) also followed their high-fat diet and had free access to water for the next 6 weeks of the experiment. But every third day and until the end of the experiment they were intragastrically administered a solution of Zn-64 stable isotope in aspartate form.
Animals in all groups were weighed once a week after an overnight fast. The amount of feed to be consumed by the animals was determined daily.

[6] = tested on: tryptophan, serotonin, monoamine oxidase; assay: Serum tryptophan, serotonin and monoamine oxidase activity, obesity model; type: in vivo, rats; conditions: intragastrically every third day
Description: as §1
The samples were reprecipitated by centrifugation.
University. Medicine. - 2000. - 1, No. 494. - P. 40-43.

[7] = tested on: peripheral serotonergic system (duodenum); assay: Indicators of the peripheral serotonergic system in duodenal homogenate, obesity model; type: in vivo, rats; conditions: intragastrically every third day
Text: as §2, §3, §4

liver = assay: Morpho-functional analysis of liver tissue (hepatocyte morphometry, fibrosis) in obesity model; type: in vivo, rats; conditions: Van Gieson's staining
[8] = tested on: products of oxidative modification of proteins; assay: Serum levels of products of oxidative modification of proteins in obesity model; type: in vivo, rats; conditions: DIO+zinc: high-fat diet, intragastrically every third day
Description: as §1
Proteins were precipitated by adding a 20% TCA solution.

pancreas = assay: Morpho-functional analysis of pancreatic tissue in obesity model; type: in vivo, rats
Text: After fixation, the pieces were rinsed in tap water. Then the material was dehydrated.
Dried preparations were stained with hematoxylin and eosin.

[9] = tested on: pro- and anti-inflammatory cytokines; assay: Cytokine profile in adipose tissue in obesity model (immunoenzyme method); type: in vivo, rats; conditions: intragastrically every third day
Description: Adipose tissue was crushed using cold scissors then transferred to a homogenizer with a loose-fitting Teflon pestle. […] Primary homogenate thus obtained was centrifuged at 600 g for 15 minutes. The supernatant was carefully collected and re-centrifuged at 15,000 g for 15 minutes. The supernatant was then frozen and stored at -80°C until the experiments.
The antigen solution, previously diluted with 0.1 M NaHCO3 buffer, pH 9.6, to a concentration of 10 µg/ml, was incubated in the plate wells for 12 hours at 4°C. Unbound material was removed by washing the wells three times with TBS buffer, first with 0.05% Tween-20, then without Tween-20. Non-specific binding sites were blocked by adding a solution of 5% skim milk or a solution of 1% bovine serum albumin to the plate wells and incubating them for 60 minutes at 37°C. After incubation, the wells were washed three times with TBS, first with 0.05% Tween-20, then without Tween-20. Primary antibodies were diluted in TBS in accordance with the manufacturer's instructions and incubated with the antigen for 60 min at 37°C. After washing with TBS working buffer, first with the addition of 0.05% Tween-20, then without Tween-20, the conjugate of secondary antibodies was added to the wells and incubated for 60 min at 37°C. As with the primary antibodies, secondary antibodies were diluted in TBS in accordance with the manufacturer's instructions. After the washing procedure, phenyldiamine dihydrochloride as substrate in 0.05M phosphate-citrate buffer was added to each well, followed by the addition of 0.3% hydrogen peroxide. After 10 minutes, the reaction time needed for development, 2.5 n H2SO4 was added.
The absorbance at a wavelength of 492 nm was measured using a µQuant microplate spectrophotometer (BioTek Instruments).

lipid metabolism = assay: Serum triglycerides, cholesterol and free fatty acids in obesity model; type: in vivo, rats; conditions: high-fat diet, 2.25 mg/ml zinc aspartate intragastrically in 2 ml
Description: To this end, high-fat diet obesity was induced in experimental animals as described in Example 2.

[10] = Body weight after intraperitoneal administration; type: in vivo; conditions: intact rats, 3750 µg of zinc per 1 kg, 7 injections every other day
Description: as §6

[11] = Serum albumin in obesity model; type: in vivo, rats; conditions: obese animals treated
Text: as §5

Question: For `CC(=O)[O-].CC(=O)[O-].[Zn+2]` [Zn acetate, Zn(CH3COO)2, reference compound], which “glucose levels in the glucose tolerance test compared with the control group” value (Glucose tolerance test) is on record?
Answer: also dropped, though not so strongly

Question: And the “Glucose, 0 min (1 h after effector administration)” value (Glucose tolerance test; individual animals, dose: 5 mg/kg in a volume of 2 ml, fast overnight, 5 mg/kg)?
Answer: 4.6 and 5.2 (2×) and 4.9 and 5.1

Question: What about the “Glucose, 60 min (1 h after glucose administration)” value (Glucose tolerance test; individual animals, dose: 5 mg/kg in a volume of 2 ml, glucose 3 g/kg body weight in 2 ml, 5 mg/kg) of the same compound?
Answer: 7.2 (2×) and 6.9 and 7.3 and 6.8

Question: What about the “accumulation of zinc in the kidney and liver tissues” value [1] of the same compound?
Answer: significantly increased

Question: What about the “serum insulin levels at day 7 after the withdrawal” value (insulin) of the same compound?
Answer: drop in the insulin levels to the value of those of intact/control animals

Question: And the “serum insulin levels on the first day after the drug withdrawal” value (insulin)?
Answer: significant increase

Question: Which results are given for `N[C@@H](CC(=O)[O-])C(=O)[O-].[Zn+2]` [^64Zne, zinc aspartate]?
Answer: IFN-γ level ([2]; C+zinc: standard diet): 4.6±0.6 RU/mg protein; IL-1 level ([2]; C+zinc: standard diet): 3.5±0.7 RU/mg protein; IL-4 level ([2]; C+zinc: standard diet): 4.6±0.8 RU/mg protein; IL-6 level ([2]; C+zinc: standard diet): 4.3±0.2 RU/mg protein; IL-10 level ([2]; C+zinc: standard diet): 4.1±0.5 RU/mg protein; IL-12 level ([2]; C+zinc: standard diet): 0.3±0.04 RU/mg protein; TGF level ([2]; C+zinc: standard diet): 4.1±0.4 RU/mg protein; IFN-γ level ([2]; DIO+zinc: high-fat diet): 4.1±1.2 RU/mg protein; IL-1 level ([2]; DIO+zinc: high-fat diet): 4.2±0.4 RU/mg protein; IL-4 level ([2]; DIO+zinc: high-fat diet): 5.6±1.6 RU/mg protein; IL-6 level ([2]; DIO+zinc: high-fat diet): 5.1±0.4 RU/mg protein; IL-10 level ([2]; DIO+zinc: high-fat diet): 6.8±1.1 # RU/mg protein; IL-12 level ([2]; DIO+zinc: high-fat diet): 2.4±0.06 RU/mg protein; TGF level ([2]; DIO+zinc: high-fat diet): 5.7±0.3 # RU/mg protein; TGF level ([2]; DIO+zinc: high-fat diet, listed as Zn-64 stable isotope in aspartate form): 5.7±0.3 RU/mg protein; Indoleamine dioxygenase activity ([3]; C+zinc: standard diet): 1178 ± 267 µmol/mg protein; Monoamine oxidase activity ([3]; C+zinc: standard diet): 0.91 ±0.06 RU/mg protein; Serotonin ([3]; C+zinc: standard diet): 25.51 ± 2.71 µg/g; Tryptophan ([3]; C+zinc: standard diet): 87.71 ± 3.41 µg/g; Tryptophan decarboxylase activity ([3]; C+zinc: standard diet): 1.63 ± 0.41 RU/mg protein; Tryptophan hydroxylase activity ([3]; C+zinc: standard diet): 291 ± 29 RU/mg protein; Indoleamine dioxygenase activity ([3]; DIO+zinc: high-fat diet): 2007 ± 175 µmol/mg protein; Monoamine oxidase activity ([3]; DIO+zinc: high-fat diet): 0.99±0.08 RU/mg protein; Serotonin ([3]; DIO+zinc: high-fat diet): 20.1 ± 3.21 µg/g; Tryptophan ([3]; DIO+zinc: high-fat diet): 31.56 ± 2.14 µg/g; Tryptophan decarboxylase activity ([3]; DIO+zinc: high-fat diet): 1.86 ± 0.37 RU/mg protein; Tryptophan hydroxylase activity ([3]; DIO+zinc: high-fat diet): 286 ± 17 RU/mg protein; glucose levels in the glucose tolerance test compared with the control group (Glucose tolerance test; listed as zinc isotope): drop in glucose concentration; also recorded: decrease in glucose levels; glucose levels in the glucose tolerance test compared with the control group (Glucose tolerance test; listed as zinc isotope ^64Zn): significant decrease in glucose levels; area of islets of Langerhans compared to the control group and the zinc acetate group (islets of Langerhans): significant increase; alkaline phosphatase activity (alkaline phosphatase): higher than both in the group of diet-induced obesity models and in the control group; accumulation of zinc in the kidney and liver tissues [1]: significantly increased; Superoxide dismutase activity (superoxide dismutase): 4.5±0.43 # RU/ min per mg protein; Catalase activity (catalase): 0.48±0.02 µmol H2O2/min per mg protein; Glucose levels ([4]; C+zinc: standard diet): 4.7 ± 0.2 mmol/L; Glucose levels ([4]; DIO+zinc: high-fat diet): 4.9 ± 0.2 mmol/L; Amount of food consumed ([5]; C+zinc: standard diet): 32 g/day; Calorie content of food ([5]; C+zinc: standard diet): 490 kJ/day; Weight gain as of the end of the experiment ([5]; C+zinc: standard diet): 59%; BMI ([5]; C+zinc: standard diet): 0.59 g/cm^2; Amount of food consumed ([5]; DIO+zinc: high-fat diet): 29 g/day; Calorie content of food ([5]; DIO+zinc: high-fat diet): 823 kJ/day; Weight gain as of the end of the experiment ([5]; DIO+zinc: high-fat diet): 62%; BMI ([5]; DIO+zinc: high-fat diet): 0.65 g/cm^2; Monoamine oxylase activity ([6]; C+zinc: standard diet): 2.52±0.03 RU/mg protein; Serotonin ([6]; C+zinc: standard diet): 10.16 ± 0.62 µg/g; Tryptophan ([6]; C+zinc: standard diet): 56.12 ± 7.58 µg/g; Monoamine oxylase activity ([6]; DIO+zinc: high-fat diet): 3.11±0.08 RU/mg protein; Serotonin ([6]; DIO+zinc: high-fat diet): 6.33 ± 0.51 µg/g; Tryptophan ([6]; DIO+zinc: high-fat diet): 66.65 ± 9.62 µg/g; Indoleamine dioxygenase activity ([7]; C+zinc: standard diet): 2150 ± 231 µmol/mg protein; Monoamine oxidase activity ([7]; C+zinc: standard diet): 3.82 ±0.07 RU/mg protein; Serotonin ([7]; C+zinc: standard diet): 7.41 ± 0.54 µg/g; Tryptophan ([7]; C+zinc: standard diet): 154.7 ± 13.6 µg/g; Tryptophan decarboxylase activity ([7]; C+zinc: standard diet): 0.79 ± 0.22 RU/mg protein; Tryptophan hydroxylase activity ([7]; C+zinc: standard diet): 375 ± 61 RU/mg protein; Indoleamine dioxygenase activity ([7]; DIO+zinc: high-fat diet): 1768 ± 274 µmol/mg protein; Monoamine oxidase activity ([7]; DIO+zinc: high-fat diet): 1.72 ±0.03 RU/mg protein; Serotonin ([7]; DIO+zinc: high-fat diet): 9.73 ± 0.82 µg/g; Tryptophan ([7]; DIO+zinc: high-fat diet): 89.4 ± 8.99 µg/g; Tryptophan decarboxylase activity ([7]; DIO+zinc: high-fat diet): 0.78 ± 0.19 RU/mg protein; Tryptophan hydroxylase activity ([7]; DIO+zinc: high-fat diet): 253 ± 58 RU/mg protein; area of collagen fiber deposits, increased by a factor versus the control group (liver; obesity group treated): 6; increase in the area of deposition of collagen fibers (liver; rats eating a standard diet): 2 fold; serum insulin levels at day 7 after the withdrawal (insulin): increased; serum insulin levels on the first day after the drug withdrawal (insulin): slightly higher than in the group of intact animals; serum insulin levels at day 7 after the withdrawal (insulin; listed as zinc isotope): significant increase; Aldehyde-dinitrophenyl-hydrazones [8]: 0.253±0.012 nmol/mg protein; Ketone-dinitrophenyl-hydrazones [8]: 0.200±0.024 nmol/mg protein; morphology of exocrine cells of the pancreas (pancreas; rats fed a standard diet, hematoxylin & eosin): did not change; cross-sectional surface area of the islets of Langerhans, increase compared with the obesity group (pancreas; rats having obesity): 43%; cross-sectional surface area of the islets of Langerhans, lower than the control value (pancreas; rats having obesity): 29%; cross-sectional surface area of the islets of Langerhans, decrease compared with the control group (pancreas; rats that ate a standard diet): 39%; IFN-γ level ([9]; C+zinc: standard diet): 5.0±0.8 RU/mg protein; IL-1 level ([9]; C+zinc: standard diet): 4.9±1.7 RU/mg protein; IL-4 level ([9]; C+zinc: standard diet): 5.0±0.4 RU/mg protein; IL-6 level ([9]; C+zinc: standard diet): 5.4±0.3 RU/mg protein; IL-10 level ([9]; C+zinc: standard diet): 4.9±0.2 RU/mg protein; IL-12 level ([9]; C+zinc: standard diet): 1.0±0.03 RU/mg protein; TGF level ([9]; C+zinc: standard diet): 5.1±0.6 RU/mg protein; IFN-γ level ([9]; DIO+zinc: high-fat diet): 4.9±0.8 RU/mg protein; IL-1 level ([9]; DIO+zinc: high-fat diet): 5.8±1.8 RU/mg protein; IL-4 level ([9]; DIO+zinc: high-fat diet): 5.1±1.2 RU/mg protein; IL-6 level ([9]; DIO+zinc: high-fat diet): 6.1±0.7 RU/mg protein; IL-10 level ([9]; DIO+zinc: high-fat diet): 5.8±0.8 RU/mg protein; IL-12 level ([9]; DIO+zinc: high-fat diet): 1.99±0.01 RU/mg protein; TGF level ([9]; DIO+zinc: high-fat diet): 5.2±0.9 RU/mg protein; levels of triglycerides, cholesterol and free fatty acids in the serum (lipid metabolism): almost at the same level as in the control group; body weight of rats [10]: significant increase; effect on albumin values [11]: no effect
